Laboratory results reported in patent US8563714B2, “Bridged spiro [2.4] heptane derivatives as ALX receptor and/or FPRL2 agonists” (Actelion Pharmaceuticals Ltd., priority 2009, dated 2013).

Legend:
[1] = biological target: T1, human FPRL2 (Homo sapiens, UniProt P25089); assay: Intracellular calcium measurements (FLIPR), agonistic activity in HEK293-hFPRL2-Gα16 cells; assay type: cell-based; settings: Fluo-4 calcium FLIPR, normalized to GLY14-Humanin 100 nM
T1 construct: expressed in transfected cells; host or cells: HEK293 (HEK293-hFPRL2-Gα16)
T1 sequence (P25089 1-353): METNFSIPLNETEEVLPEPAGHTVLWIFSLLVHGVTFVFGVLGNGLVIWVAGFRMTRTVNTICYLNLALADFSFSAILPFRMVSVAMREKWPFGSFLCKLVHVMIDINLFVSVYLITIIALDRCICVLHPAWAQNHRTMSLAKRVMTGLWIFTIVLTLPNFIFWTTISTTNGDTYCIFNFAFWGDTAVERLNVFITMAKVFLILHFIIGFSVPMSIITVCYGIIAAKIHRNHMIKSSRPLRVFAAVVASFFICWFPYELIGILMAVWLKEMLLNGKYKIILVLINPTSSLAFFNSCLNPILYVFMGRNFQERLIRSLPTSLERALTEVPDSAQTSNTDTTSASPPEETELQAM
In short: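 Peak values after baseline subtraction are expressed relative to 100 nM Gly14-Humanin; compounds diluted in assay buffer from 10 mM DMSO stocks.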

[2] = biological target: T2, human ALX receptor (Homo sapiens, UniProt P25090); assay: Intracellular calcium measurements (FLIPR), agonistic activity in HEK293-hALXR-Gα16 cells; assay type: cell-based; settings: Fluo-4 calcium FLIPR, normalized to WKYMVm 10 nM
T2 construct: expressed in transfected cells; host or cells: HEK293 (HEK293-hALXR-Gα16)
T2 sequence (P25090 1-351): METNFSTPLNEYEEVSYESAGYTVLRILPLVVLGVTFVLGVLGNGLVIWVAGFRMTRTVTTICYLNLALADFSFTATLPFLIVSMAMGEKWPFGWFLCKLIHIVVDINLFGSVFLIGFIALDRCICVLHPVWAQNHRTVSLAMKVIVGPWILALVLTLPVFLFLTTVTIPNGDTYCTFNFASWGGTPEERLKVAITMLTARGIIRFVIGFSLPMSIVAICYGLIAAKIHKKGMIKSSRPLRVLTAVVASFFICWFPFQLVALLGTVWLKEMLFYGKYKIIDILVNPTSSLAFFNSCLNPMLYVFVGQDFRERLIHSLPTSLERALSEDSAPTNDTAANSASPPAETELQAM
In short: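 Agonist-induced calcium flux was recorded by FLIPR (488/540 nm) in HEK293-hALXR-Gα16 cells pre-loaded with Fluo-4 AM (1 μM, 60 min, 37°C). Peak signal above baseline, after subtracting buffer addition, was expressed relative to WKYMVm at 10 nM final.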

Structure (SMILES)	EC50 [1] [nM]	EC50 [2] [nM]
NCCCCCNC(=O)[C@H]1[C@H](C(=O)Nc2ncc(Br)s2)[C@@H]2CC[C@H]1C21CC1 [Example 334, (5R)—N^5-(5-Bromo-thiazol-2-yl)-(6R)—N^6-(5-amino-pentyl)-(4S,7R)-[4,7-ethylene-spiro[2.4]heptane]-5,6-dicarboxamide]	230	0.45
NCCCCNC(=O)[C@H]1[C@H](C(=O)Nc2ncc(Br)s2)[C@@H]2CC[C@H]1C21CC1 [Example 335, (5R)—N^5-(5-Bromo-thiazol-2-yl)-(6R)—N^6-(4-amino-butyl)-(4S,7R)-[4,7-ethylene-spiro[2.4]heptane]-5,6-dicarboxamide]	1300	0.5
NCC1CCN(C(=O)C2C(C(=O)Nc3ncc(Br)s3)C3CCC2C32CC2)CC1 [Example 336, (5R)—N^5-(5-Bromo-thiazol-2-yl)-(6R)—N^6,N^6-(3-(aminomethyl)pentane-1,5-diyl)-(4S,7R)-[4,7-ethylene-spiro[2.4]heptane]-5,6-dicarboxamide]	1490	6.2
O=C(NCC1CCNCC1)[C@H]1[C@H](C(=O)Nc2ncc(Br)s2)[C@@H]2CC[C@H]1C21CC1 [Example 337, (5R)—N^5-(5-Bromo-thiazol-2-yl)-(6R)—N^6-(piperidin-4-yl-methyl)-(4S,7R)-[4,7-ethylene-spiro[2.4]heptane]-5,6-dicarboxamide]	1210	7.3
O=C(NCCCCN1CCCC1)[C@H]1[C@H](C(=O)Nc2cnc(Br)c(F)c2)[C@@H]2C=C[C@H]1C21CC1 [Example 338, (5R)—N^5-(2-Bromo-3-fluoro-pyridin-5-yl)-(6R)—N^6-(4-pyrrolidino-butyl)-(4S,7R)-[4,7-ethenylene-spiro[2.4]heptane]-5,6-dicarboxamide]	139	168
CC(C)(C)C1CCC(NC(=O)C2C(C(=O)NCCCCN3CCCC3)C3C=CC2C32CC2)CC1 (stereo not drawn) [Example 342, (5R*)—N^5-(4-tert-Butyl-cyclohexyl)-(6R*)—N^6-(4-pyrrolidino-butyl)-(4S*,7R*)-[4,7-ethenylene-spiro[2.4]heptane]-5,6-dicarboxamide]	100	> 2390
Cc1ccc(CCNC(=O)C2C(C(=O)NCCCCN3CCCC3)C3C=CC2C32CC2)cc1 (stereo not drawn) [Example 381, (5R*)—N^5-(2-(4-Methylphenyl)ethyl)-(6R*)—N^6-(4-pyrrolidino-butyl)-(4S*,7R*)-[4,7-ethenylene-spiro[2.4]heptane]-5,6-dicarboxamide]	30	3900
O=C(NCCCCN1CCCC1)C1C(C(=O)NCCc2ccc(F)cc2)C2C=CC1C21CC1 (stereo not drawn) [Example 382, (5R*)—N^5-(2-(4-Fluorophenyl)ethyl)-(6R*)—N^6-(4-pyrrolidino-butyl)-(4S*,7R*)-[4,7-ethenylene-spiro[2.4]heptane]-5,6-dicarboxamide]	52	6360
CCOc1ccc(CNC(=O)C2C(C(=O)NCCCCN3CCCC3)C3C=CC2C32CC2)cc1 (stereo not drawn) [Example 386, (5R*)—N^5-(4-Ethoxyphenyl-methyl)-(6R*)—N^6-(4-pyrrolidino-butyl)-(4S*,7R*)-[4,7-ethenylene-spiro[2.4]heptane]-5,6-dicarboxamide]	254	2910
O=C(NCCCCN1CCCC1)[C@H]1[C@H](C(=O)NCCc2ccc(Cl)cc2)[C@@H]2C=C[C@H]1C21CC1 [Example 387, (5R)—N^5-(2-(4-Chlorophenyl)ethyl)-(6R)—N^6-(4-pyrrolidino-butyl)-(4S,7R)-[4,7-ethenylene-spiro[2.4]heptane]-5,6-dicarboxamide]	26	8270
CN(C)CCNC(=O)[C@H]1[C@H](C(=O)NCCc2ccc(Cl)cc2)[C@@H]2C=C[C@H]1C21CC1 [Example 388, (5R)—N^5-(2-(4-Chlorophenyl)ethyl)-(6R)—N^6-(2-dimethylamino-ethyl)-(4S,7R)-[4,7-ethenylene-spiro[2.4]heptane]-5,6-dicarboxamide]	623	> 25000
O=C(NCCc1ccccn1)[C@H]1[C@H](C(=O)NCCc2ccc(Cl)cc2)[C@@H]2C=C[C@H]1C21CC1 [Example 389, (5R)—N^5-(2-(4-Chlorophenyl)ethyl)-(6R)—N^6-(2-(pyridin-2-yl)ethyl)-(4S,7R)-[4,7-ethenylene-spiro[2.4]heptane]-5,6-dicarboxamide]	554	> 25000
NS(=O)(=O)c1ccc(CCNC(=O)[C@H]2[C@H](C(=O)NCCc3ccc(Cl)cc3)[C@@H]3C=C[C@H]2C32CC2)cc1 [Example 390, (5R)—N^5-(2-(4-Chlorophenyl)ethyl)-(6R)—N^6-(2-(4-aminosulfonyl-phenyl)-ethyl)-(4S,7R)-[4,7-ethenylene-spiro[2.4]heptane]-5,6-dicarboxamide]	576	> 25000
O=C(NCCCCN1CCCC1)[C@H]1[C@H](C(=O)NCCc2ccc(Cl)cc2Cl)[C@@H]2C=C[C@H]1C21CC1 [Example 391, (5R)—N^5-(2-(2,4-Dichlorophenyl)ethyl)-(6R)—N^6-(4-pyrrolidino-butyl)-(4S,7R)-[4,7-ethenylene-spiro[2.4]heptane]-5,6-dicarboxamide]	3.8	9710
CC(C)CCN1CCC(NC(=O)[C@H]2[C@H](C(=O)NCCc3ccc(Cl)cc3)[C@@H]3C=C[C@H]2C32CC2)CC1 [Example 392, (5R)—N^5-(2-(4-Chlorophenyl)ethyl)-(6R)—N^6—(N-isopentyl-piperidin-4-yl)-(4S,7R)-[4,7-ethenylene-spiro[2.4]heptane]-5,6-dicarboxamide]	20	10400
O=C(NCCCCN1CCCC1)[C@H]1[C@H](C(=O)Nc2cc(F)c(Br)c(F)c2)[C@@H]2C=C[C@H]1C21CC1 [Example 393, (5R)—N^5-(4-Bromo-3,5-difluorophenyl)-(6R)—N^6-(4-pyrrolidino-butyl)-(4S,7R)-[4,7-ethenylene-spiro[2.4]heptane]-5,6-dicarboxamide]	16	1190
O=C(NCCCCN1CCCC1)[C@H]1[C@H](C(=O)Nc2nc(Br)cs2)[C@@H]2C=C[C@H]1C21CC1 [Example 394, (5R)—N^5-(4-Bromo-thiazol-2-yl)-(6R)—N^6-(4-pyrrolidino-butyl)-(4S,7R)-[4,7-ethenylene-spiro[2.4]heptane]-5,6-dicarboxamide]	166	1550
O=C(NCCCCN1CCCC1)[C@H]1[C@H](C(=O)Nc2ccc(Br)c(C(F)(F)F)c2)[C@@H]2C=C[C@H]1C21CC1 [Example 395, (5R)—N^5-(4-Bromo-3-trifluoromethylphenyl)-(6R)—N^6-(4-pyrrolidino-butyl)-(4S,7R)-[4,7-ethenylene-spiro[2.4]heptane]-5,6-dicarboxamide]	13	3800
CC1CCC(C)N1CCCCNC(=O)[C@H]1[C@H](C(=O)Nc2ccc(Br)cc2)[C@@H]2C=C[C@H]1C21CC1 (stereo partly drawn) [Example 397, (5R)—N^5-(4-Bromophenyl)-(6R)—N^6-(4-(2,5-dimethylpyrrolidin-1-yl)butyl)-(4S,7R)-[4,7-ethenylene-spiro[2.4]heptane]-5,6-dicarboxamide]	149	2.1
CC(CCCNC(=O)[C@H]1[C@H](C(=O)Nc2ccc(Br)cc2)[C@@H]2C=C[C@H]1C21CC1)N1CCCC1 (stereo partly drawn) [Example 398, (5R)—N^5-(4-Bromophenyl)-(6R)—N^6-(4-(pyrrolidin-1-yl)pentyl)-(4S,7R)-[4,7-ethenylene-spiro[2.4]heptane]-5,6-dicarboxamide]	7510	1.8
O=C(NCCC(F)CN1CCCC1)[C@H]1[C@H](C(=O)Nc2ccc(Br)cc2)[C@@H]2C=C[C@H]1C21CC1 (stereo partly drawn) [Example 399, (5R)—N^5-(4-Bromophenyl)-(6R)—N^6-(3-fluoro-4-(pyrrolidin-1-yl)butyl)-(4S,7R)-[4,7-ethenylene-spiro[2.4]heptane]-5,6-dicarboxamide]	4770	5
COCC1CCCN1CCCCNC(=O)[C@H]1[C@H](C(=O)Nc2ccc(Br)cc2)[C@@H]2C=C[C@H]1C21CC1 (stereo partly drawn) [Example 400, (5R)—N^5-(4-Bromophenyl)-(6R)—N^6-(4-(2-(methoxymethyl)pyrrolidin-1-yl)butyl)-(4S,7R)-[4,7-ethenylene-spiro[2.4]heptane]-5,6-dicarboxamide]	7650	1.4
O=C(NCCCCN1CCC(F)(F)C1)[C@H]1[C@H](C(=O)Nc2ccc(Br)cc2)[C@@H]2C=C[C@H]1C21CC1 [Example 401, (5R)—N^5-(4-Bromophenyl)-(6R)—N^6-(4-(3,3-difluoropyrrolidin-1-yl)butyl)-(4S,7R)-[4,7-ethenylene-spiro[2.4]heptane]-5,6-dicarboxamide]	516	4.4
